Patent publication US20250129103A1, “METHODS FOR TREATMENT OF CANCER” (Frontier Medicines Corporation, priority 2022, published 2025)
pIC50: −log10 of the molar value. ≈ marks a conversion by molar mass, not a printed value.

Columns and labels:
[1] = biological target: KRAS G12C (GMPPNP-loaded) and cRAF (Ras-binding domain) interaction (Homo sapiens (Human), UniProt P01116, C118S/C51S/C80L/G12C); assay: Inhibition of KRAS G12C and cRAF binding (AlphaScreen); details: KRAS G12C loaded with GMPPNP, cRaf RBD, 2 hours preincubation; read-out: Raf-1 RBD K-Ras IC50
Chain of KRAS G12C (GMPPNP-loaded) and cRAF (Ras-binding domain) interaction (P01116 other isoform, or with tags, fused parts or gaps G12C/C51S/C80L/C118S): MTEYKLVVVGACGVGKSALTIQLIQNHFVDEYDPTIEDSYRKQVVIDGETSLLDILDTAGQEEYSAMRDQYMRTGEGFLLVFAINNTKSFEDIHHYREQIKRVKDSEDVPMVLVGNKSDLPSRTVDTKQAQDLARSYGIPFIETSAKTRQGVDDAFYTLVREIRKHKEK
Outline: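 AlphaScreen readout (680 nm excitation, 570 nm emission) of RBD binding after a 60-90 min bead step at room temperature. This step follows 2 h compound exposure of GMPPNP-preloaded KRAS G12C in Hepes pH 7.4 buffer with MgCl2 and 10 μM GMPPNP.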

[2] = Determination of kinetic solubility (pH 7.4); assay type: physicochemical; details: for solubility kinetic at 2 h: phosphate buffer, pH 7.4, aqueous buffer, kinetic from dmso stock, 50 mM phosphate buffer pH 7.4, read-out: Ksol, pH 7.4
Outline: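 Solubility taken from filtrate peak areas on a calibration curve (HPLC-UV, LC-MS/MS). Before filtration and centrifugation, compound was shaken for 2 h at room temperature in pH 7.4 50 mM phosphate buffer.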

[3] = Determination of logD (1-octanol / phosphate buffer pH 7.4); assay type: physicochemical; details: 1-octanol/phosphate buffer, pH 7.4, pH 7.4, 1-octanol/phosphate buffer; read-out: Log D, pH 7.4
Outline: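 Each phase analysed by LCMS after 1 h shaking at 800 rpm and centrifugation, room temperature. Phases were mutually saturated 1-octanol and 100 mM phosphate buffer at pH 7.4. LogD derived from the phase concentrations.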

[4] = biological target: KRAS G12C (GMPPNP-loaded) and PI3Ka (Ras-binding domain) interaction (Homo sapiens (Human), UniProt P01116, C118S/C51S/C80L/G12C); assay: Inhibition of KRAS G12C and PI3Ka binding (AlphaScreen); details: KRAS G12C loaded with GMPPNP, PI3Ka RBD, 2 hours preincubation; read-out: PI3K RBD K-Ras IC50
Chain of KRAS G12C (GMPPNP-loaded) and PI3Ka (Ras-binding domain) interaction (P01116 other isoform, or with tags, fused parts or gaps G12C/C51S/C80L/C118S): as above
Outline: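 Biotin-AviTag Cys-light KRAS G12C (aa 1-169, C51S/C80L/C118S), GMPPNP-loaded, 1.5 nM, preincubated 2 h with compound, then His-tagged PI3Ka RBD (aa 157-300, 100 nM) plus AlphaScreen beads added for 60-90 min, RT. Buffer Hepes pH 7.4, 10 μM GMPPNP, 2% DMSO; 10-point 1:3 from 50 μM; 4-parameter IC50.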

Row | pIC50 [1] | solubility kinetic at 2 h [2] | logD [3] | pIC50 [4] | Ksol, pH 7.4 (ug/mL) ([2]; 50 mM phosphate buffer pH 7.4) | Structure (SMILES)
1 | > 8.00 | 124 µg/mL (≈ 160 µM) | 3.25 | > 8.00 |  | N#CC[C@H]1CN(c2nc(OC[C@@]34CCCN3C[C@H](F)C4)nc3c(F)c(-c4cccc5ccc(F)c(Cl)c45)ncc23)CCN1C(=O)/C=C/CN1CCCOCC1 [Example 70, 2-((S)-1-((E)-4-(1,4-oxazepan-4-yl)but-2-enoyl)-4-(7-(8-chloro-7-fluoronaphthalen-1-yl)-8-fluoro-2-(((2R,7aS)-2-fluorotetrahydro-1H-pyrrolizin-7a(5H)-yl)methoxy)pyrido[4,3-d]pyrimidin-4-yl)piperazin-2-yl)acetonitrile]
2 | 7.00 to 8.00 | 130 µg/mL (≈ 186 µM) | 2.87 | 7.00 to 8.00 |  | CN1CC[C@@H]1/C=C/C(=O)N1CCN(c2nc(OC[C@@]34CCCN3C[C@H](F)C4)nc3c(F)c(-c4cccc(Cl)c4C4CC4)ncc23)C[C@@H]1CC#N [Compound 305]
3 | > 8.00 | 143 µg/mL (≈ 185 µM) | 3.12 | > 8.00 |  | N#CC[C@H]1CN(c2nc(OC[C@@]34CCCN3C[C@H](F)C4)nc3c(F)c(-c4cccc5ccc(F)c(Cl)c45)ncc23)CCN1C(=O)/C=C/CN1C[C@H]2C[C@@H]1CO2 [Example 72, 2-((S)-1-((E)-4-((1R,4R)-2-oxa-5-azabicyclo[2.2.1]heptan-5-yl)but-2-enoyl)-4-(7-(8-chloro-7-fluoronaphthalen-1-yl)-8-fluoro-2-(((2R,7aS)-2-fluorotetrahydro-1H-pyrrolizin-7a(5H)-yl)methoxy)pyrido[4,3-d]pyrimidin-4-yl)piperazin-2-yl)acetonitrile]
4 | 7.00 to 8.00 |  | 2.9 | > 8.00 | 111.20 ug/mL | Cc1noc(/C=C/C(=O)N2CCN(c3nc(OCC45CCCN4CCC5)nc4c3CCN(c3cccc5cccc(Cl)c35)C4)C[C@@H]2CC#N)n1 [Example 1, (S,E)-2-(4-(7-(8-chloronaphthalen-1-yl)-2-((hexahydro-1H-pyrrolizin-7a-yl)methoxy)-5,6,7,8-tetrahydropyrido[3,4-d]pyrimidin-4-yl)-1-(3-(3-methyl-1,2,4-oxadiazol-5-yl)acryloyl)piperazin-2-yl)acetonitrile]
5 | > 8.00 | 74.4 µg/mL (≈ 96.7 µM) | 3.7 | > 8.00 |  | N#CC[C@H]1CN(c2nc(OC[C@@]34CCCN3C[C@H](F)C4)nc3c(F)c(-c4cccc5cccc(Cl)c45)ncc23)CCN1C(=O)/C=C/CN1CC2CCC(C1)O2 [Example 81, 2-((2S)-1-((E)-4-(8-oxa-3-azabicyclo[3.2.1]octan-3-yl)but-2-enoyl)-4-(7-(8-chloronaphthalen-1-yl)-8-fluoro-2-(((2R,7aS)-2-fluorohexahydro-1H-pyrrolizin-7a-yl)methoxy)pyrido[4,3-d]pyrimidin-4-yl)piperazin-2-yl)acetonitrile]
6 | > 8.00 | 0.01 µg/mL (≈ 0.0128 µM) | 4.2 | > 8.00 |  | N#CC[C@H]1CN(c2nc(OC[C@@]34CCCN3C[C@H](F)C4)nc3c(F)c(-c4cccc5ccc(F)c(Cl)c45)ncc23)CCN1C(=O)/C=C/c1ccnc(C2CC2)n1 [Compound 208]
7 | > 8.00 | 0.01 µg/mL (≈ 0.0129 µM) | 3.78 | > 8.00 |  | N#CC[C@H]1CN(c2nc(OC[C@@]34CCCN3C[C@H](F)C4)nc3c2CCN(c2cccc4ccc(F)c(Cl)c24)C3)CCN1C(=O)/C=C/c1nc(C2COC2)no1 [Example 8, 2-((S)-4-(7-(8-chloro-7-fluoronaphthalen-1-yl)-2-(((2R,7aS)-2-fluorohexahydro-1H-pyrrolizin-7a-yl)methoxy)-5,6,7,8-tetrahydropyrido[3,4-d]pyrimidin-4-yl)-1-((E)-3-(3-(oxetan-3-yl)-1,2,4-oxadiazol-5-yl)acryloyl)piperazin-2-yl)acetonitrile]

The next lines start with the compound.

Row | Structure (SMILES) | pIC50 [1] | solubility kinetic at 2 h [2] | logD [3] | pIC50 [4] | Ksol, pH 7.4 (ug/mL) ([2]; 50 mM phosphate buffer pH 7.4)
8 | N#CC[C@H]1CN(c2nc(OC[C@@]34CCCN3C[C@H](F)C4)nc3c(F)c(-c4cccc5cccc(Cl)c45)ncc23)CCN1C(=O)/C=C/CN1CC[C@@H](F)C1 [Compound 96, 2-((S)-4-(7-(8-chloronaphthalen-1-yl)-8-fluoro-2-(((2R,7aS)-2-fluorohexahydro-1H-pyrrolizin-7a-yl)methoxy)pyrido[4,3-d]pyrimidin-4-yl)-1-((E)-4-((R)-3-fluoropyrrolidin-1-yl)but-2-enoyl)piperazin-2-yl)acetonitrile] | > 8.00 | 64.4 µg/mL (≈ 86.5 µM) | 2.82 | > 8.00 | 
9 | CCO[C@@H]1CCN(C/C=C/C(=O)N2CCN(c3nc(OC[C@@]45CCCN4C[C@H](F)C5)nc4c(F)c(-c5cccc6cccc(Cl)c56)ncc34)C[C@@H]2CC#N)C1 [Compound 92, 2-((S)-4-(7-(8-chloronaphthalen-1-yl)-8-fluoro-2-(((2R,7aS)-2-fluorohexahydro-1H-pyrrolizin-7a-yl)methoxy)pyrido[4,3-d]pyrimidin-4-yl)-1-((E)-4-((R)-3-ethoxypyrrolidin-1-yl)but-2-enoyl)piperazin-2-yl)acetonitrile] | > 8.00 | 104 µg/mL (≈ 135 µM) | 3.35 | > 8.00 | 
10 | Cc1cc(/C=C/C(=O)N2CCN(c3nc(OC[C@@]45CCCN4C[C@H](F)C5)nc4c(F)c(-c5cccc(Cl)c5C5CC5)ncc34)C[C@@H]2CC#N)nc(C)n1 [Compound 102, 2-((S)-4-(7-(3-chloro-2-cyclopropylphenyl)-8-fluoro-2-(((2R,7aS)-2-fluorotetrahydro-1H-pyrrolizin-7a(5H)-yl)methoxy)pyrido[4,3-d]pyrimidin-4-yl)-1-((E)-3-(2,6-dimethylpyrimidin-4-yl)acryloyl)piperazin-2-yl)acetonitrile] | > 8.00 | 12 µg/mL (≈ 16.2 µM) | 3.98 | > 8.00 | 
11 | Cc1cc(N)nc([C@@H]2Cc3nc(OC[C@@]45CCCN4C[C@H](F)C5)nc(N4CCN(C(=O)/C=C/c5nc([C@H]6C[C@@H]6F)no5)[C@@H](CC#N)C4)c3C[C@H]2C)c1C(F)(F)F [Compound 136] | > 8.00 | 0.02 µg/mL (≈ 0.0255 µM) | 4.37 | > 8.00 | 
12 | CC(C)c1nccc(/C=C/C(=O)N2CCN(c3nc(OC[C@@]45CCCN4C[C@H](F)C5)nc4c(F)c(-c5cccc6cccc(Cl)c56)ncc34)C[C@@H]2CC#N)n1 [Compound 151] | > 8.00 | 0.41 µg/mL (≈ 0.536 µM) | 3.71 | > 8.00 | 
13 | CC(C)c1noc(/C=C/C(=O)N2CCN(c3nc(OCC45CCCN4CCC5)nc4c3CCN(c3cccc5ccc(F)c(Cl)c35)C4)C[C@@H]2CC#N)n1 [Compound 126] | 7.00 to 8.00 | 0.01 µg/mL (≈ 0.0135 µM) | 4.24 | 7.00 to 8.00 | 
14 | N#CC[C@H]1CN(c2nc(OC[C@@]34CCCN3C[C@H](F)C4)nc3c(F)c(-c4cccc5ccc(F)c(Cl)c45)ncc23)CCN1C(=O)/C=C/CN1CCOCC1 [Compound 53] | > 8.00 | 111 µg/mL (≈ 146 µM) | 2.82 | > 8.00 | 
15 | N#CC[C@H]1CN(c2nc(OC[C@@]34CCCN3C[C@H](F)C4)nc3c(F)c(-c4cccc5ccc(F)c(F)c45)ncc23)CCN1C(=O)/C=C/CN1C2COCC1C2 [Compound 224] | > 8.00 | 84.6 µg/mL (≈ 112 µM) | 2.96 | > 8.00 | 
16 | N#CC[C@H]1CN(c2nc(OC[C@@]34CCCN3C[C@H](F)C4)nc3c(F)c(-c4cccc(Cl)c4C4CC4)ncc23)CCN1C(=O)/C=C/CN1CC2CC(C1)O2 [Compound 244] | > 8.00 | 121 µg/mL (≈ 163 µM) | 3.13 | 7.00 to 8.00 | 
17 | C#Cc1c(F)ccc2cccc(-c3ncc4c(N5CCN(C(=O)/C=C/c6cc(C)nc(C)n6)[C@@H](CC#N)C5)nc(OC[C@@]56CCCN5C[C@H](F)C6)nc4c3F)c12 [Compound 101, 2-((S)-1-((E)-3-(2,6-dimethylpyrimidin-4-yl)acryloyl)-4-(7-(8-ethynyl-7-fluoronaphthalen-1-yl)-8-fluoro-2-(((2R,7aS)-2-fluorotetrahydro-1H-pyrrolizin-7a(5H)-yl)methoxy)pyrido[4,3-d]pyrimidin-4-yl)piperazin-2-yl)acetonitrile] | > 8.00 | 1.49 µg/mL (≈ 1.97 µM) | 3.32 | > 8.00 | 
18 | Cc1cc(N)nc(-c2ncc3c(N4CCN(C(=O)/C=C/CN5CCOCC5)[C@@H](CC#N)C4)nc(OC[C@@]45CCCN4C[C@H](F)C5)nc3c2F)c1C(F)(F)F [Compound 55] | 7.00 to 8.00 | 128 µg/mL (≈ 169 µM) | 1.53 | 7.00 to 8.00 | 
19 | CO[C@@H]1CCN(C/C=C/C(=O)N2CCN(c3nc(OC[C@@]45CCCN4C[C@H](F)C5)nc4c(F)c(-c5cccc6cccc(Cl)c56)ncc34)C[C@@H]2CC#N)C1 [Compound 191] | > 8.00 | 94.9 µg/mL (≈ 125 µM) | 3.18 | > 8.00 | 
